Reference: PubChem BioAssay (NCI)
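Grown in 96-well plates, cells were treated for 48 hours with each compound at five concentrations. Insufficient inhibition: endpoint recorded as highest concentration tested. TGI is the concentration that stops growth completely.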

How the values were obtained:
Assay in all cases: NCI anticancer screen, dose series, 48 h
SNB-19 CNS = system: SNB-19 CNS
SK-OV-3 ovarian = system: SK-OV-3 ovarian
SK-MEL-2 melanoma = system: SK-MEL-2 melanoma
MALME-3M melanoma = system: MALME-3M melanoma
RXF 393 renal = system: RXF 393 renal
SF-295 CNS = system: SF-295 CNS
UO-31 renal = system: UO-31 renal
A549 NSCLC = system: A549 NSCLC
786-0 renal = system: 786-0 renal
KM12 colon = system: KM12 colon
NCI-H460 lung = system: NCI-H460 lung
UACC-257 melanoma = system: UACC-257 melanoma

Row | SMILES | TGI (SNB-19 CNS) [µM] | TGI (SK-OV-3 ovarian) [µM] | TGI (SK-MEL-2 melanoma) [µM] | TGI (MALME-3M melanoma) [µM] | TGI (RXF 393 renal) [µM] | TGI (SF-295 CNS) [µM] | TGI (UO-31 renal) [µM] | TGI (A549 NSCLC) [µM] | TGI (786-0 renal) [µM] | TGI (KM12 colon) [µM] | TGI (NCI-H460 lung) [µM] | TGI (UACC-257 melanoma) [µM]
1 | O=C(N/N=C/c1ccc([N+](=O)[O-])o1)c1ccc(C(=O)N/N=C/c2ccc([N+](=O)[O-])o2)cc1 | > 100 | > 100 | > 100 | 48.7 | > 100 | > 100 | > 100 | > 100 | > 100 | > 100 |  | 
2 | CCN(CC)CCCC(C)Nc1ccnc2ccc3nn(C)nc3c12 (centres undefined) | > 100 | > 100 |  | > 100 |  | > 100 | > 100 | > 100 | > 100 | > 100 | > 100 | > 100
3 | COc1cc(NC(C)=O)ccc1C(=O)NN1C(=O)C(Cl)C1c1ccco1 (centres undefined) | > 100 |  | > 100 | > 100 | > 100 |  | > 100 | > 100 | > 100 | > 100 |  | 
4 | Cn1c(-c2cccs2)cc(-c2cccs2)c1-c1ccco1 | > 100 | > 100 | > 100 |  | > 82.7 | > 100 | > 100 | > 100 | > 100 | 22.9 | > 100 | > 100
5 | CCN(CC)CCN1C(=O)c2c(c(-c3ccccc3)c3ccccc3c2-c2ccccc2)C1=O | > 100 | > 100 | > 100 | > 100 | > 100 | > 100 |  | > 100 | > 100 | > 100 | > 100 | > 100
6 | CC(=O)Oc1cc2c(c3ncccc13)OC(C)(C)C2 |  | > 100 | 44.6 | 23.4 | 26.8 | 36.1 | > 100 | 27.4 | 30.3 | 30.7 | 31.3 | 29.5
7 | O=C1N2CCc3c([nH]c4ccccc34)C23CC2CCCCC12S3 (centres undefined) | > 100 | > 100 |  | > 100 | > 100 | > 100 | > 100 | > 100 | > 100 | > 100 |  | 73.1
8 | NC(=O)c1coc(C2OC(CO)C(O)C2O)n1 (centres undefined) | > 100 | > 100 | > 100 | > 100 |  |  | > 100 | > 100 | > 100 | > 100 | > 100 | 
9 | C[C@]12Cc3cnn(-c4ccc(F)cc4)c3NC1CC[C@@H]1C2CC[C@@]2(C)C1CC[C@@H]2O (some centres undefined) | 56.1 | 67.9 |  | 23.7 | 5.09 | 4.38 | 22.5 | 30.7 | 11.9 | 18.3 | 16.6 | 19.2
10 | O=C(Cc1csc(N=Nc2c(O)[nH]c3ccccc23)n1)Nc1ccccc1 | 85.4 | > 100 | > 100 |  | > 100 | > 100 | 93.3 | > 100 | 34.3 | > 100 | > 100 | 87.7
11 | O=C1CC(=O)NC(=NN2C(=O)/C(=C/c3ccccc3)N=C2c2ccccc2)N1 |  | > 100 | > 100 | > 100 | > 100 | > 100 | > 100 | > 100 | > 100 | > 100 | > 100 | > 100
12 | Cc1cc(S(=O)(=O)/N=C(\[N-]S(=O)(=O)c2ccc(Cl)cc2)[n+]2ccc(N(C)C)cc2)c(S)cc1Cl |  | > 100 | > 100 |  | > 100 | > 100 | > 100 |  | > 100 | > 100 | > 100 | > 100
13 | C/C=C1/CN2CCC3(O)c4ccccc4N4C=C(C(=O)OC)C1CC2C43O (centres undefined) | > 100 | > 100 |  | > 100 |  | > 100 | > 100 | > 100 | > 100 | > 100 | > 100 | > 100
14 | CCCCOC(=O)NC(Nc1cccc(C(F)(F)F)c1)(C(F)(F)F)C(F)(F)F | > 100 |  | 99.1 | > 100 | > 100 | > 100 | > 100 | > 100 | > 100 | > 100 | > 100 | > 100
15 | NC(=O)NC(=O)c1cccc(CNc2ccc(C(=O)N[C@@H](CCC(=O)O)C(=O)O)cc2)n1 |  | > 100 | > 100 |  |  | > 100 | > 100 | > 100 | > 100 | > 100 | > 100 | > 100
16 | CCOC(=O)Cc1csc2[n+]1C(=O)/C(=C\c1cccc(Cl)c1Cl)S2 | 88 | 43.1 | 36.7 |  | 40.4 | 46.5 | 27.1 | 35.8 | 31.2 | 33.5 | 45.8 | 90.1
17 | O=C(CCCNc1nc(-c2ccccc2)cs1)c1cccs1 | > 100 | > 100 | > 100 | > 100 |  | > 100 | > 100 | > 100 | > 100 | > 100 | > 100 | > 100
18 | COC(C(=O)C(O)C(C)O)C1CC2C=C3C=C(OC4CC(OC5CC(O)C(OC)C(C)O5)C(OC(C)=O)C(C)O4)C(C)C(=O)C3=C(O)C2=C(O)C1OC1CC(OC2CC(OC3CC(C)(O)C(OC(=O)C(C)C)C(C)O3)C(O)C(C)O2)C(O)C(C)O1 (centres undefined) |  | > 100 | < 0.01 | < 0.01 | < 0.01 |  |  |  | < 0.01 | < 0.01 |  | < 0.01
19 | COP(=O)(Cc1ccccc1)Cc1ccccc1 |  | > 100 | > 100 | > 100 | > 100 | > 100 | > 100 | > 100 | > 100 |  | > 100 | > 100
20 | Cc1ccc2c(sc(-c3ccc4c(c3)sc(-c3ccc5c(c3)sc(-c3ccc(N(C)C)cc3)[n+]5C)[n+]4C)[n+]2C)c1S(=O)(=O)O (tested in a mixture with another compound) | > 100 | > 100 | > 100 |  |  | > 100 | > 100 | > 100 | > 100 | > 100 |  | > 100

Row | SMILES | TGI (SNB-19 CNS) [µM] | TGI (SK-OV-3 ovarian) [µM] | TGI (SK-MEL-2 melanoma) [µM] | TGI (MALME-3M melanoma) [µM] | TGI (RXF 393 renal) [µM] | TGI (SF-295 CNS) [µM] | TGI (UO-31 renal) [µM] | TGI (A549 NSCLC) [µM] | TGI (786-0 renal) [µM] | TGI (KM12 colon) [µM] | TGI (NCI-H460 lung) [µM] | TGI (UACC-257 melanoma) [µM]
21 | COc1cc(C(=O)O[C@@H]2[C@@H](OC(=O)c3cc(OC)c(OC)c(OC)c3)[C@@H](OC)O[C@@H]3CO[C@@H](c4ccccc4)O[C@@H]23)cc(OC)c1OC | > 100 | > 100 | > 100 | > 100 |  | > 100 | > 100 | > 100 | > 100 | > 100 | > 100 | > 100
22 | COc1ccc2c(c1)/C(=C\c1c(C)nc3sc(C)cn13)C(=O)N2 | > 100 | 23 | > 28.3 | > 100 |  | > 20.4 | > 100 | > 100 | 72.7 | 62.4 | 16.5 | > 78.2
23 | O=C1NC(N2CCCCC2)=N/C1=C\c1cccs1 | > 100 | > 100 | > 100 | > 100 | > 100 | > 100 | > 100 | > 100 | > 100 | > 100 |  | > 100
24 | CS(=O)(=O)c1c(N)c2nc(Cl)cn2c2nc3ccccc3nc12 | > 100 | > 100 | > 100 | > 100 |  | > 100 | > 100 | > 100 | > 100 | > 100 | > 100 | > 100
25 | Cc1nn(C(=O)c2ccncc2)c2c1C(c1ccccc1)SC(N)=N2 (centres undefined) | > 10 | > 10 | > 10 | > 10 | > 10 | > 10 |  | > 10 | > 10 | > 10 | > 10 | > 10
26 | COc1cc(C)cc2c1c(=O)c1ccccc1n2C | > 100 | > 100 | 49.9 | > 100 | 73.8 | 45.3 |  | > 100 | > 100 | > 100 | > 100 | > 100
27 | CCCCc1ccc(Nc2nc(=S)c3[nH]cnc3[nH]2)cc1 | 56.8 |  | 52.1 | 37 |  | 78.7 | > 100 | > 100 | > 100 | 25.8 | > 100 | 55.2
28 | CCOC(=O)Cc1csc2[n+]1C(=O)/C(=C/c1cccc(OC)c1O)S2 | > 100 | > 100 | > 100 |  |  | > 100 | > 100 | > 100 | > 100 | > 100 | > 100 | > 100
29 | C/C1=C/C(C)CC(C)OC(=O)C(C)NC(=O)C(Cc2ccc(O)c(I)c2)N(C)C(=O)C(C)NC(=O)C(C)C1 (centres undefined) | > 100 |  | 5.67 | 3.45 | < 0.0106 | 1.25 |  | > 100 | 3.79 | 24.3 | 12.8 | 8.36
30 | OC[C@]1(n2nc3ccccc3n2)OC[C@@H]1c1ccccc1 | > 100 | > 100 | > 100 | > 100 |  | > 100 | > 100 | > 100 | > 100 | > 100 | > 100 | > 100
31 | CC1(C)CC23CC(C)(C)c4cccc(c42)OCc2ccc4ccc5ccc(nc5c4n2)COc2cccc1c23 | > 5 | > 50 | > 50 |  |  | > 50 | > 50 | > 50 | > 50 | > 50 | > 50 | > 50
32 | CC(C)(C)NC(=O)NC12CC3CC(CC(F)(C3)C1)C2 | > 100 | > 100 | > 100 | > 100 | > 100 |  | > 100 | > 100 | > 100 | > 100 | > 100 | > 100
33 | C=C(C)C1CC/C(C)=C/CC[C@]2(C)O[C@H]2CC/C(COC(C)=O)=C\[C@@H]1O (some centres undefined) | > 50 | > 50 | > 50 |  | > 50 | > 50 | > 50 | > 50 | > 50 | > 50 | > 50 | > 50
34 | CCCCSC1=N/C(=C\c2ccc(N(C)C)cc2)C(NN)=N1 | > 100 | > 100 | > 100 | > 100 | > 100 | > 100 |  | > 100 | > 100 | > 100 | > 100 | > 100
35 | CCOC(=O)c1nc2ccccc2nc1Nc1ccc(OC)c(OC)c1 | > 100 | > 100 | > 100 | > 100 |  | > 100 | > 100 | > 100 | > 100 | > 100 | > 100 | 
36 | Cc1nc(C(N)=S)sc1C(/C=C/c1ccc(Cl)c(Cl)c1)=N/NC(C)(C)C | > 100 | > 100 | > 100 |  | > 100 | > 100 | > 100 | > 100 | > 100 | > 100 | > 100 | > 100
37 | CC1(C)CC(=O)C2=C(C1)NC1=C(C(=O)CC(C)(C)C1)C2c1ccc([N+](=O)[O-])cc1 | > 100 | > 100 | > 100 |  | > 100 | > 100 | > 100 | > 100 | > 100 | > 100 | > 100 | > 100
38 | C=C(C)CC1(O)C(=O)C(OCC)=C1OCC (centres undefined) | > 100 | > 100 | > 100 | > 100 |  | > 100 | > 100 | > 100 | > 100 | > 100 | > 100 | > 100
39 | CCOC(=O)c1sc(N/N=C2\NC(=O)/C(=C/c3ccc([N+](=O)[O-])cc3)S2)nc1C | > 100 | > 100 | 81.3 |  | 84 | > 100 | 47 | > 100 | 33.7 | 57.1 | 48.2 | 42.1
